Laboratory results published in ChEMBL document CHEMBL5715945 (Cancer Biol Ther, 2010).
Activity calls are given as the source filed them. The calls are words filed in the database; no cut-off is given here.

Assays:
4T1 [1] = assay: Inhibition of cell adhesion to fibronectin in mouse 4T1 cells at 0.4 uM incubated for 4 hrs by […]; type: functional, cell-based
[2] = molecular target: Focal adhesion kinase 1 (Mus musculus) (UniProt P34152); assay: Inhibition of FAK phosphorylation at Tyr397 residue in mouse 4T1 cells harbouring mCherry red fluorescent protein at 0.1 to 1 uM incubated for 1 hr by immunoblotting analysis; type: cell-based; details: dose 0.1-1 µM
4T1 [3] = assay: Inhibition of Src phosphorylation at Tyr416 residue in mouse 4T1 cells harbouring mCherry red fluorescent protein incubated for 1 hr by immunoblotting analysis; type: cell-based; details: dose 0.1-1 µM

Chain of Focal adhesion kinase 1 (Mus musculus) (P34152 whole entry): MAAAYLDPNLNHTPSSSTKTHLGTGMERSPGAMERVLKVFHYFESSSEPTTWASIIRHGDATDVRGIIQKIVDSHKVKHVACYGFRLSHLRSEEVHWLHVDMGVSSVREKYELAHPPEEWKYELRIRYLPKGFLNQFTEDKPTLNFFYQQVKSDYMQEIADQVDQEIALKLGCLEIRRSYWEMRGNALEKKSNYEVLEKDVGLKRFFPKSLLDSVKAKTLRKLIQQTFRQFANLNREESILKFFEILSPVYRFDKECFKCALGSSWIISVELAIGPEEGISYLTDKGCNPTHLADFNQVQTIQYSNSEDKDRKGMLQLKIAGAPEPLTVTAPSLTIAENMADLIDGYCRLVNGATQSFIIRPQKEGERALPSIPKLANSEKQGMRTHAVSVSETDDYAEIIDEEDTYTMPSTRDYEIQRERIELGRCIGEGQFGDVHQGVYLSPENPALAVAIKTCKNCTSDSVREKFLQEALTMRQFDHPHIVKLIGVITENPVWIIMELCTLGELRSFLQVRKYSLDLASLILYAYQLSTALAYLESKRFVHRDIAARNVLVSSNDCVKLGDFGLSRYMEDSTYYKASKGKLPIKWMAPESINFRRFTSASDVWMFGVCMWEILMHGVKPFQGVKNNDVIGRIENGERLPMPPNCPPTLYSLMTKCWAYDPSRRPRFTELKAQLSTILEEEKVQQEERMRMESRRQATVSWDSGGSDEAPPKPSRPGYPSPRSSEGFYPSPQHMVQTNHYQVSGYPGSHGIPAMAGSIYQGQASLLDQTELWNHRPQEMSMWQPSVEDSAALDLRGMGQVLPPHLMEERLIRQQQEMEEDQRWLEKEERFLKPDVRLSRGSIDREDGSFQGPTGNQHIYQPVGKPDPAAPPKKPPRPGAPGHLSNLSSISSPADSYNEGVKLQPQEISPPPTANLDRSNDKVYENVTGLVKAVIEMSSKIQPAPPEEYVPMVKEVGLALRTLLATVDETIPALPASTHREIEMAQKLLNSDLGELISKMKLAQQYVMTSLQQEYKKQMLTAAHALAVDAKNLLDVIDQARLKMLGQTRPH

inhibition [2]: inactive
SMILES: Cc1nc(Nc2ncc(C(=O)Nc3c(C)cccc3Cl)s2)cc(N2CCN(CCO)CC2)n1
inhibition (4T1 [1]): inactive
inhibition (4T1 [3]): Dose-Dependent Effect
